Experimental data taken from patent US7807691B2, “Substituted N-arylpyrrolidines as selective androgen receptor modulators” (Eli Lilly and Company, priority 2005, dated 2010).

Legend:
[1] = target: T1, human androgen receptor (AR) (Homo sapiens, UniProt P10275); test: C2C12 AR/ARE reporter assay; type: cell-based; settings: average; for Emax: C2C12, read-out: C2C12 % Efficacy, versus maximum stimulation obtained with 10 nM methyltrienolone; for EC50: C2C12 EC50(nM), mouse myoblast C2C12 cells, luciferase reporter, 48 h; for C2C12 % Efficacy: versus maximum stimulation obtained with 10 nM methyltrienolone
T1 construct: expressed in transfected cells; host or cells: mouse myoblast C2C12 cells, transiently co-transfected with FuGENE
T1 sequence (P10275 1-920): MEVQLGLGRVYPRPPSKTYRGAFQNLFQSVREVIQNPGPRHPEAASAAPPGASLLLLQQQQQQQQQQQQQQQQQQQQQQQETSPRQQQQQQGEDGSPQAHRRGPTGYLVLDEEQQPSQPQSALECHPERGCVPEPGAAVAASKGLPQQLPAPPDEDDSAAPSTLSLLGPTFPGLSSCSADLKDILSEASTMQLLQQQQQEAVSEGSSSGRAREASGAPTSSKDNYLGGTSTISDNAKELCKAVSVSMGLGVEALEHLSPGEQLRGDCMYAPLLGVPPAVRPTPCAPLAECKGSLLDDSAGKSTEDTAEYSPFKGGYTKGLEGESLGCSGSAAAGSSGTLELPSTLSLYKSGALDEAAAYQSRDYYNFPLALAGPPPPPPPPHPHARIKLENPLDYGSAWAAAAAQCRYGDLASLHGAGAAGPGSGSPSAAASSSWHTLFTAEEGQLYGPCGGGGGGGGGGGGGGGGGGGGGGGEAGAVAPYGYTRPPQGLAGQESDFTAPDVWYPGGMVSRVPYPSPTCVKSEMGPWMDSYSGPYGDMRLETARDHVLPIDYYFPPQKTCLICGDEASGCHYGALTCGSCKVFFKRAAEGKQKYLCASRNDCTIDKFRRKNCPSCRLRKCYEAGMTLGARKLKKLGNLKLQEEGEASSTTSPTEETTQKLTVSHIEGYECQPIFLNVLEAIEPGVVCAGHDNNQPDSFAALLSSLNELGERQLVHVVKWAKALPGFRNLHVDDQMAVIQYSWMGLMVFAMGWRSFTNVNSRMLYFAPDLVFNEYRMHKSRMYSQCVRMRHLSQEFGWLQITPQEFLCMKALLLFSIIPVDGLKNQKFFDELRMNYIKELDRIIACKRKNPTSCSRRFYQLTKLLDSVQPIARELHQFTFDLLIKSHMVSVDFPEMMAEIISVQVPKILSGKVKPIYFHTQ
Description: As an indicator of agonist activity in muscle tissue, the C2C12 AR/ARE reporter assay is performed. Briefly, mouse myoblast C2C12 cells are co-transfected using FuGENE™. […] Cells are transfected in T150 cm^2 flasks in DMEM media with 4% or 10% Fetal Bovine Serum (FBS). After a 5 hour incubation, transfected cells are trypsinized, plated in 96 well dishes in DMEM media containing 10% charcoal-stripped FBS, incubated for 2 h and then exposed to various concentrations of test compounds ranging from about 0.01 nM to 10 μM. After 48 h of incubations with compounds, cells are lysed and luciferase activity is determined using standard techniques. Data is fit to a 4 parameter-fit logistics to determine EC50 values. The % efficacy is determined versus maximum stimulation obtained with 10 nM methyltrienolone. […]

[2] = target: T2, human AR (androgen receptor) (Homo sapiens, UniProt P10275); test: Steroid hormone nuclear receptor binding assay (AR binding); settings: AR binding Ki (nM), 293-AR cell lysate, 3H-methyltrienolone competition
T2 construct: expressed in transfected cells; host or cells: 293 cells (293-AR lysate)
T2 sequence (P10275 1-920): T1 sequence (P10275 1-920)
Description: Cell lysates from 293 cells overexpressing human GR (glucocorticoid receptor), AR (androgen receptor), MR (mineralocorticoid receptor) or PR (progesterone receptor) are used for competition binding assays to determine Ki values for test compounds. Briefly, competition binding assays are run in a buffer containing 20 mM Hepes, pH 7.6, 0.2 mM EDTA, 75 mM NaCl, 1.5 mM MgCl2, 20% glycerol, 20 mM sodium molybdate, 0.2 mM DTT, 20 ug/ml aprotinin and 20 ug/ml leupeptin, using either 0.3 nM ^3H-dexamethasone for GR binding, 0.36 nM ^3H-methyltrienolone for AR binding, 0.25 nM ^3H-aldosterone for MR binding, or 0.29 nM ^3H-methyltrienolone for PR binding, and either 20 ug 293-GR lysate, 22 ug 293-AR lysate, 20 ug 293-MR lysate or 40 ug 293-PR lysate per well. Competing compounds are added at various concentrations ranging from about 0.01 nM to 10 μM. Non-specific binding is determined in the presence of 500 nM dexamethasone for GR binding, 500 nM aldosterone for MR binding, or 500 nM methyltrienolone for AR and PR binding. The binding reaction (140 μl) is incubated for overnight at 4° C., then 70 μl of cold charcoal-dextran buffer (containing per 50 ml of assay buffer, 0.75 g of charcoal and 0.25 g of dextran) is added to each reaction. Plates are mixed 8 minutes on an orbital shaker at 4° C. Plates are then centrifuged at 3,000 rpm at 4° C. for 10 minutes. An aliquot of 120 μl of the mix is transferred to another 96-well plate and 175 μl of Wallac Optiphase “Hisafe 3” scintillation fluid is added to each well. Plates are sealed and shaken vigorously on an orbital shaker. After an incubation of 2 hrs, plates are read in a Wallac Microbeta counter. The data is used to calculate an IC50 and % Inhibition at 10 μM. The Kd for ^3H-dexamethasone for GR binding, ^3H-methyltrienolone for AR binding, ^3H-aldosterone for MR binding, or ^3H-methyltrienolone for PR binding, is determined by saturation binding. The IC50 values for test compounds are converted to Ki using Cheng-Prusoff equation and the Kd determined by saturation binding assay.
Binding assay protocols for steroid hormone nuclear receptors similar to those described above can be readily designed by the ordinarily skilled artisan.

SMILES	Emax [1] [%]	EC50 [1] [nM]	Ki [2] [nM]	C2C12 % Efficacy [1] [%]
CCC1CCC(c2ccccc2)N1c1ccc(C#N)c(Cl)c1 (mixture of isomers) [Example 22, 2-Chloro-4-(2-ethyl-5-phenyl-pyrrolidin-1-yl)-benzonitrile]	85.5	17.7	4.9	–
CCC1CCC(c2ccccc2)N1c1ccc(C#N)c(Cl)c1C (mixture of isomers) [Example 23, 2-Chloro-4-(2-ethyl-5-phenyl-pyrrolidin-1-yl)-3-methyl-benzonitrile]	70.1	131	27.1	–
CCC1CCC(c2ccccc2)N1c1ccc(C#N)c(Cl)c1 (single isomer, unassigned) [Example 22a, 2-Chloro-4-(2-ethyl-5-phenyl-pyrrolidin-1-yl)-benzonitrile]	–	32.4	122	92.4
CCC1CCC(c2ccccc2)N1c1ccc(C#N)c(Cl)c1 (single isomer, unassigned) [Example 22b, 2-Chloro-4-(2-ethyl-5-phenyl-pyrrolidin-1-yl)-benzonitrile]	–	25	39.9	80.6
CCC1CCC(c2ccccc2)N1c1ccc(C#N)c(Cl)c1 (single isomer, unassigned) [Example 22c, 2-Chloro-4-(2-ethyl-5-phenyl-pyrrolidin-1-yl)-benzonitrile]	–	135	39.8	61.3
CCC1CCC(c2ccccc2)N1c1ccc(C#N)c(Cl)c1 (single isomer, unassigned) [Example 22d, 2-Chloro-4-(2-ethyl-5-phenyl-pyrrolidin-1-yl)-benzonitrile]	–	6.1	2.2	66.5
Cc1c(N2CCCC2c2ccccc2)ccc(C#N)c1Cl (stereo not shown) [Example 1, 2-Chloro-3-methyl-4-(2-phenyl-pyrrolidin-1-yl)-benzonitrile]	67.6	1.2	1.4	–
Cc1c(N2CCCC2c2ccc(Cl)cc2)ccc(C#N)c1Cl (stereo not shown) [Example 2]	61	36.7	4.3	–
Cc1c(N2CCCC2c2ccc(F)cc2)ccc(C#N)c1Cl (stereo not shown) [Example 3]	51.1	5.1	2.7	–
Cc1c(N2CC(C)(C)CC2c2ccccc2)ccc(C#N)c1Cl (stereo not shown) [Example 4]	84.9	11.2	6.6	–
COc1cccc(C2CCCN2c2ccc(C#N)c(Cl)c2C)c1 (stereo not shown) [Example 5]	102	0.9	1.1	–
COc1ccccc1C1CCCN1c1ccc(C#N)c(Cl)c1C (stereo not shown) [Example 6]	81.7	177	7	–
COc1ccc(C2CCCN2c2ccc(C#N)c(Cl)c2C)cc1 (stereo not shown) [Example 7]	68.9	28.3	3.4	–
Cc1c(N2CCCC2c2ccccc2C(F)(F)F)ccc(C#N)c1Cl (stereo not shown) [Example 8]	-38.5	–	72.9	–
Cc1c(N2CCCC2c2ccccn2)ccc(C#N)c1Cl (stereo not shown) [Example 10]	79.8	40.8	4.7	–
Cc1c(N2CCCC2c2ccncc2)ccc(C#N)c1Cl (stereo not shown) [Example 11]	76.8	6.8	6	–
CSc1cccc(C2CCCN2c2ccc(C#N)c(Cl)c2C)c1 (stereo not shown) [Example 13]	84.7	9.7	5.8	–
CSc1ccc(C2CCCN2c2ccc(C#N)c(Cl)c2C)cc1 (stereo not shown) [Example 14]	73.1	21.2	13.4	–
Cc1c(N2CCCC2c2cncnc2)ccc(C#N)c1Cl (stereo not shown) [Example 15]	85.1	0.4	2.8	–
N#Cc1ccc(N2CCCC2c2cccnc2)cc1Cl (stereo not shown) [Example 16]	42.6	109	17.4	–
CC1(c2ccc3c(c2)OCO3)CCCN1c1ccc(C#N)c(Cl)c1 (stereo not shown) [Example 17]	13.2	–	27.3	–
COc1cccc(C2(C)CCCN2c2ccc(C#N)c(Cl)c2)c1 (stereo not shown) [Example 18]	77.9	9.8	24.4	–
